Literature values, collected in patent publication US20030219468A1 (priority 2002, published 2003).

Experiments:
[1] = system: Plasmodium berghei; settings: mice, toward Plasmodium berghei
[2] = cold water
[3] = sorbic acid and its salts

| Compound | immunizing activity [1] | solubility [2] | microbiostatic antimycotic activity [3] |
| --- | --- | --- | --- |
| Curdlan | immunizing activity | – | – |
| C/C=C/C=C/C(=O)O [Sorbic acid, trans,trans-2,4-hexadienoic acid] | – | only slightly soluble | very high microbiostatic antimycotic activity |
